In publication PMC12662929, “MR2938 relieves DSS-induced colitis in mice through inhibiting NF-κB signaling and improving epithelial barrier” (Marine Life Science & Technology, 2025):

Experiments:
[1] = system: DSS-induced colitis C57BL/6 mice; assay: Acute DSS-induced murine colitis model; format: in vivo, mouse; conditions: for body weight: MR2938 50 or 100 mg/kg or 5-ASA 100 mg/kg, oral
Method: After 1 week of acclimation, the C57BL/6 mice were randomly divided into the following groups (n = 6/group): control group, model group (DSS), DSS + 5-aminosalicylic acid (5-ASA, positive group, 100 mg/kg), DSS + MR2938 (100 mg/kg) and DSS + MR2938 (50 mg/kg). Colitis was induced by administration of 3% DSS drinking water for 5 consecutive days. Water consumption was monitored daily. At the same time, the mice in each group were given the corresponding agents: 5-ASA (100 mg/kg) and MR2938 (50 mg/kg or 100 mg/kg). The dosages of 5-ASA and MR2938 were adopted based on previous reports and our pilot trial. MR2938 or 5-ASA was dissolved in a mixture of saline and DMSO (95:5) to provide the desired concentrations.
Changes in bodyweight were assessed daily over the 9-day experimental period. On the last day of the experiment, mice were sacrificed, and the entire colon was excised. Colon length was measured and gently washed with physiological saline. Then two pieces with 0.5 cm in length of the distal section were used for histological assessment and immunofluorescence staining. The remaining colon tissue samples were used to determine MPO activity and the concentrations of cytokines.
Distal colons were harvested, fixed in 4% paraformaldehyde, and embedded in paraffin. Five-μm-thick tissue sections were stained with hematoxylin and eosin (HE) for light microscopic examination using a DP73 light microscope (Olympus, Tokyo, Japan). Colonic mucosa damage score was assessed as previously described. To count colonic goblet cells, fixed colonic tissues were also stained in Alcian blue for 10–15 min and dehydrated with 100% alcohol and xylene, followed by image acquisition on a microscope.
The serum was obtained from the collected blood samples through centrifugation at 3500 g for 15 min at 4 °C. A portion of frozen colon samples was homogenized with RIPA lysis buffer (Solarbio, Beijing, China) to extract total proteins. The homogenate was centrifuged at 12,000 × g at 4 °C for 15 min. The protein contents were quantified using a bicinchoninic acid (BCA) protein assay kit (Solarbio, Beijing, China) according to the manufacturer’s instructions. The concentrations of proinflammatory cytokines IL-1β, IL-6, and TNF-α in the serum and colon tissue were measured by ELISA (Jingmei Biotech, China) according to the manufacturers’ recommendations. MPO activity was measured using a myeloperoxidase assay kit (Jingmei Biotech, China).
(§1) Total RNAs of colon tissues were extracted using tissue RNA kit (Omega Biotek, China) following the manufacturer’s protocol. cDNA was obtained from RNA samples using ReverTra Ace qPCR RT Master Mix with gDNA Remover (TOYOBO, Japan). Quantitative real-time PCR was performed by Applied Biosystems® QuantStudio Q5 instrument (Thermo, USA) with SYBR qPCR Master Mix (Vazyme, China). The relative gene expression was measured and normalized to β-actin expression using 2^−ΔΔCt method.
(§2) For immunofluorescence staining, the frozen colon slides or cells were fixed in 4% paraformaldehyde, permeabilized with 0.1% Triton X-100, blocked non-specific proteins in 5% BSA/PBS for 1 h, and incubated overnight at 4 °C with Occludin, ZO-1 or p65 primary antibodies. The slides were then washed with phosphate buffer (PBS) and incubated with Dylight 488 labeling secondary antibody for 1 h at room temperature. Finally, the colon slides were stained with DAPI for 10 min, and then imaged and captured using ECHO microscope.

[2] = Brain permeability in mice after i.p. administration; format: in vivo, mouse; conditions: n=3
Method: Table S2. Concentration of MR2938 in brain after its i.p. administration (6.5 mg/kg)

AChE = system: AChE; design: method as in Lv et al. 2023; conditions: ref Lv et al. 2023; cited from earlier work
[3] = system: proinflammatory cytokines mRNA; design: method as in Lv et al. 2023; conditions: 2.5 μmol/L; ref Lv et al. 2023; cited from earlier work
[4] = In vivo PK study in SD rats; conditions: plasma, rat
Method: MR2938 was synthesized in-house following previously reported procedure (Lv et al. [2023]), and confirmed by NMR and HPLC chromatography (purity > 95%). To detect the pharmacokinetic characters of MR2938 in the plasma, the SD rats were orally and intravenous (i.v.) administered with MR2938 at a dose of 10 mg/kg and 3 mg/kg, respectively. The vehicle consisted of 10% DMSO, 30% saline, and 60% PEG400. Plasma samples were collected at 5 min, 15 min, 30 min and 1 h, 2 h, 4 h, 6 h, 8 h, 12 h, and 24 h after administration. After analyzing the concentration of MR2938 via LC–MS, the values of Cmax, Tmax, T1/2, Cl, AUClast, and AUCInf were calculated (Hu et al. [2018]). The bioavailability of MR2938 from the p.o. was calculated by comparing the area under the concentration–time curve (AUCInf) for the […] dose and that for the i.v. dose.

[5] = system: NF-κB signaling in Raw264.7 cells; assay: LPS-induced inflammation / NF-κB signaling in Raw264.7 macrophages; format: cell-based
Method: Raw264.7 cells and Caco-2 cells were obtained from the Cell Bank of the Chinese Academy of Sciences (Shanghai, China) and cultured in high-glucose DMEM medium supplemented with 10% fetal bovine serum (FBS) at 37 ℃ in a 5% CO2 atmosphere. Raw264.7 cells were seeded and incubated in six-well plates (8 × 10^5 cells/well) overnight, and then treated with different concentrations of MR2938 for 2 h. Then Raw264.7 cells were activated by lipopolysaccharide (LPS, 100 ng/mL, Sigma-Aldrich Co., Shanghai, CN) for 2 h or 6 h for transcription or protein level analysis.
as §1, §2
Total proteins were extracted with RIPA lysis buffer. After determining the protein concentration by the BCA assay kit, an equal amount of protein was subjected to SDS-PAGE and electro-transferred to a PVDF membrane. The membrane was immune detected with specific antibodies overnight at 4 °C. Proteins were quantified by Image J software. The target antibodies against p65, phosphorylated p65, IκBα, p-IκBα, TLR4, NLRP3, caspase-1, IL-1β, and β-actin were purchased from Proteintech or Cell Signaling Technology.

NO production = system: NO production; design: method as in Lv et al. 2023; conditions: ref Lv et al. 2023; cited from earlier work
Caco-2 cells = assay: LPS-induced tight junction disruption in Caco-2 cells (immunofluorescence); format: cell-based
Method: Caco-2 cells were seeded and incubated in 24-well plates (1 × 10^5 cells/well) for 48 h and treated with 10 μmol/L of MR2938 for 2 h. Then 100 ng/mL of LPS was added for 24 h to induce tight function disruption.
as §2

**Q.** With `COc1cc(OC)c2c(=O)[nH]c(-c3ccc(N4CCN(C)CC4)cc3)nc2c1` [MR2938] as the compound, how does the “Occludin and ZO-1 proteins in colon (immunofluorescence), comparison with 5-ASA” value ([1]; 100 mg/kg) read?
**A.** as effective as 5-ASA

**Q.** What about the “mRNA levels of Occludin, ZO-1 and claudin-1 in colon” value ([1]; 100 mg/kg vs colitis group, no statistical difference) of the same compound?
**A.** upregulated

**Q.** What about the “colon length (shortening)” value ([1]; 3% DSS, 100 mg/kg oral, similar to control group, significantly longer than 5-ASA group) of the same compound?
**A.** greatly relieved

**Q.** What about the body weight ([1]; 3% DSS) of the same compound?
**A.** marked improvement

**Q.** What about the “inflammatory cell infiltration, mucosal damage and overall colonic damage score (HE histology)” value ([1]; 3% DSS, oral administration) of the same compound?
**A.** obvious attenuation

**Q.** What about the “concentration of MPO in colon” value ([1]; DSS-induced) of the same compound?
**A.** slight decrease

**Q.** And the “concentration of MPO in serum” value ([1]; DSS-induced)?
**A.** slight decrease

**Q.** What about the “colonic level of IL-1β” value ([1]; ELISA, colon tissue) of the same compound?
**A.** decreased

**Q.** What about the “colonic level of TNF-α” value ([1]; ELISA, colon tissue) of the same compound?
**A.** decreased

**Q.** What about the “IL-1β in mouse serum” value ([1]; ELISA, 50 mg/kg and 100 mg/kg) of the same compound?
**A.** significant decrease

**Q.** What about the “TNF-α in mouse serum” value ([1]; ELISA, 50 mg/kg and 100 mg/kg) of the same compound?
**A.** significant decrease

**Q.** What about the “serum IL-6 level” value ([1]; ELISA, 50 mg/kg group compared with 100 mg/kg group) of the same compound?
**A.** no statistical difference between the two groups

**Q.** What about the “gene transcription of IL-1β in colon” value ([1]; RT-qPCR) of the same compound?
**A.** noticeably inhibited

**Q.** What about the “gene transcription of TNF-α in colon” value ([1]; RT-qPCR) of the same compound?
**A.** noticeably inhibited

**Q.** And the “transcription of IL-6 in colon” value ([1]; RT-qPCR, 100 mg/kg, compared with 5-ASA)?
**A.** more favorable effects on the transcription of IL-6 than 5-ASA

**Q.** What about the GPx in colon ([1]; colitis group vs treatment group) of the same compound?
**A.** no significant difference

**Q.** And the “Occludin and ZO-1 proteins in colon (immunofluorescence)” value ([1]; dose-dependent, 50 and 100 mg/kg)?
**A.** partially alleviate the depletion

**Q.** And the “mucin-secreting goblet cells in colonic epithelia (Alcian blue staining)” value ([1]; similar to control group)?
**A.** rescued the differentiation of mucin-producing goblet cells

**Q.** And the “organ indexes of mice” value ([1]; treatment group vs control groups)?
**A.** no obvious differences

**Q.** And the “production of MDA in colon” value ([1]; vs DSS group)?
**A.** significantly suppressed

**Q.** What about the Amount in brain ([2]; i.p. 6.5 mg/kg (145 μg)) of the same compound?
**A.** 236.7 ng

**Q.** What about the Concentration in brain ([2]; i.p. 6.5 mg/kg) of the same compound?
**A.** 222.07 ng/g

**Q.** What about the IC50 (AChE) of the same compound?
**A.** 5.04 µM

**Q.** And the “mRNA level of proinflammatory cytokines” value [3]?
**A.** significantly decreased

**Q.** And the AUC(0-inf) ([4]; iv, 3 mg/kg i.v., mean n = 3)?
**A.** 1070 ng·h/mL

**Q.** And the AUC(0-t) ([4]; iv, 3 mg/kg i.v., mean n = 3)?
**A.** 1060 ng·h/mL

**Q.** What about the Cmax ([4]; iv, 3 mg/kg i.v., mean n = 3) of the same compound?
**A.** 1030 ng/mL

**Q.** What about the half-life ([4]; iv, 3 mg/kg i.v., mean n = 3) of the same compound?
**A.** 2.25 h

**Q.** And the clearance ([4]; iv, 3 mg/kg i.v., mean n = 3, read-out: Cl (plasma clearance))?
**A.** 47.2 mL/min/kg

**Q.** And the bioavailability ([4]; oral, 10 mg/kg p.o. vs 3 mg/kg i.v., from AUCInf, read-out: F (oral bioavailability))?
**A.** 59%

**Q.** What about the AUC(0-inf) ([4]; po, 10 mg/kg p.o., mean n = 3) of the same compound?
**A.** 2110 ng·h/mL

**Q.** What about the AUC(0-t) ([4]; po, 10 mg/kg p.o., mean n = 3) of the same compound?
**A.** 2080 ng·h/mL

**Q.** And the Cmax ([4]; po, 10 mg/kg p.o., mean n = 3)?
**A.** 592 ng/mL

**Q.** What about the Tmax ([4]; po, 10 mg/kg p.o., mean n = 3) of the same compound?
**A.** 0.667 h

**Q.** What about the half-life ([4]; po, 10 mg/kg p.o., mean n = 3) of the same compound?
**A.** 2.87 h

**Q.** And the “NF-κB fluorescence intensity / subcellular location” value ([5]; 10 μM pre-treatment, LPS activation, immunofluorescence)?
**A.** dropped and was mostly accumulated in the cytoplasm

**Q.** What about the “total p65” value ([5]; LPS stimulated, western blot) of the same compound?
**A.** slightly downregulated

**Q.** And the “phosphorylation of IκBα and p65” value ([5]; LPS stimulated, western blot, dose-dependent)?
**A.** effectively inhibited

**Q.** And the “expression of TLR4” value ([5]; LPS stimulated, decrease did not correlate to concentration)?
**A.** reduced

**Q.** What about the “expressions of IL-1β, NLRP3 and caspase-1 (mRNA and protein)” value ([5]; qPCR and western blot, vs LPS stimulated) of the same compound?
**A.** significantly reduced

**Q.** What about the IC50 (NO production) of the same compound?
**A.** 3.29 µM

**Q.** And the “expression of Occludin and ZO-1” value (Caco-2 cells; 10 μmol/L, LPS 100 ng/mL stimulated)?
**A.** able to rescue expression levels

**Q.** What about the “Occludin and ZO-1 protein levels” value (Caco-2 cells; MR2938 alone, without LPS) of the same compound?
**A.** little changes

**Q.** With `Nc1ccc(O)c(C(=O)O)c1` [5-ASA, 5-aminosalicylic acid, reference compound] as the compound, how does the body weight ([1]; 3% DSS) read?
**A.** marked improvement

**Q.** For `O=C(c1ccc(Nc2nccc(-c3cc4ccccc4s3)n2)cc1)N1CCC(N2CCCC2)CC1` [IKK16, reference compound], which “LPS-elevated expression level of NLRP3” value ([5]; western blot, NF-κB pathway blocked) is on record?
**A.** obviously decreased
